Source: patent publication US20250114389A1, “NUCLEOSIDES AND NUCLEOTIDES ANALOGS AS ANTIVIRAL AGENTS” (Emory University, priority 2021, published 2025)

Assays:
SARS-CoV-2 [1] = experiment: Anti-SARS-CoV-2 activity in HAE-ALI culture; format: cell-based; conditions: Severe acute respiratory syndrome coronavirus 2; HAE air-liquid interface
SARS-CoV-2 [2] = experiment: Anti-SARS-CoV-2 activity in Calu3 ALI culture; format: cell-based; conditions: Severe acute respiratory syndrome coronavirus 2, Calu-3; Calu3 air-liquid interface
SARS-CoV-2 [3] = experiment: Anti-SARS-CoV-2 activity in Calu3 cells (virus yield inhibition); format: cell-based; conditions: Severe acute respiratory syndrome coronavirus 2, Calu-3, Table 1
[4] = Multi-dose range-finding study in Golden Syrian hamsters; conditions: hamster, in vivo, po, 30 mg/kg
Procedure: Multi-dose range-finding study in Golden Syrian Hamsters: 3 male Syrian hamsters were given 30 mg/kg of compound A by oral gavage daily for 7 days. The body weight of each of the individual hamsters during the nucleoside analog treatment was measured (grams per day) over a 7 day period. […] The body temperature of the hamsters was also measured over the course of the treatment in two of the hamsters (FIG. 9, Rodent 1 and Rodent 2). The third hamster lost the chip, and, despite re-chipping, temperatures were still not recording.
Daily observations of the hamsters were taken, particularly with respect to their ability to eat and drink normally, and other behavior and activity ratings (B.A.R.), and the observations are summarized below in Table 10.

[5] = Single dose range-finding study in Golden Syrian hamsters; format: in vivo; conditions: for Notes (clinical observations): hamster, in vivo, ip
Procedure: 3 male Syrian hamsters were injected intraperitoneally with a Compound A starting at 5 mg/kg at time 0 with […] administered every 30 minutes upto a final 80 mg/kg. Clinical observations of toxicity were recorded.

SMILES: N#C[C@@]1(n2ccc(N)nc2=O)O[C@H](CO)[C@@H](O)[C@H]1O [Compound A, (2R,3R,4S,5R)-2-(4-amino-2-oxopyrimidin-1(2H)-yl)-3,4-dihydroxy-5-(hydroxymethyl)-tetrahydrofuran-2-carbonitrile]
- EC50 (SARS-CoV-2 [1]): 0.4 µM
- EC90 (SARS-CoV-2 [1]): 1.6 µM
- EC50 (SARS-CoV-2 [2]): 1.3 µM
- EC90 (SARS-CoV-2 [2]): 7.4 µM
- EC50 (SARS-CoV-2 [3]): 0.02 µM
- EC90 (SARS-CoV-2 [3]): 0.2 µM
- Daily Observations [4]: B.A.R. Eating
- ability to eat and drink [4]: able to eat and drink normally
- signs of toxicity ([5]; IP injection, total dose of 80 mg/kg, hamsters): no signs of toxicity
- Notes (clinical observations) ([5]; 55 mg/kg): B.A.R.* No sign of discomfort
- Notes (clinical observations) ([5]; 80 mg/kg): B.A.R.* No sign of discomfort
